Experimental data from article PMC8006935, “Study of Combinatorial Drug Synergy of Novel Acridone Derivatives With Temozolomide Using in-silico and in-vitro Methods in the Treatment of Drug-Resistant Glioma” (Frontiers in Oncology, 2021).
Like-named read-outs stand apart in the source and are kept apart here.

Key:
[1] = pKa by UV-Vis spectrophotometer; assay type: physicochemical
Protocol: Characterization of acridone derivatives AC2, AC7, and AC26 were carried out by using all the chemicals of analytical grade. Hydrochloric acid and sodium hydroxide were procured from Sisco Research Lab Pvt. Ltd (Mumbai, India). Potassium dihydrogen orthophosphate, methanol and ortho-phosphoric acid (85% pure) was received from Loba Chemie Pvt. Ltd. (Mumbai, India). Sodium chloride was received from SD Fine-Chem Limited (Mumbai, India). Milli-pore water was used throughout the study. Chemical information like the molecular weight of compounds was determined by obtaining ESI-MS spectroscopy using methanol as solvent. pH calculated by using pH analyzer (Lab India) and PKa determined by using UV-Vis spectrophotometer (Shimadzu, Japan). Melting point was calculated by Digital Melting point apparatus (Veego India). Lipophilicity was determined by using software like Chem Draw 15 and ALGOPS 2.1 ([16]). In order to determine the Blood Brain Barrier (BBB) permeability of the compounds, we have used Online BBB Predictor (https://www.cbligand.org/BBB/predictor.php) using SVM Machine Learning algorithm and PubChem as the fingerprint ([17]).

[2] = Acute Oral Toxicity - Fixed Dose procedure; assay type: in vivo; conditions: for clinical sign of toxicity: oral, single dose, 14 days observation, female albino Wistar rats
Protocol: Animal study was conducted for acridone derivatives AC2, AC7, and AC26 alone and in combination with Temozolomide for Acute Oral Toxicity - Fixed Dose procedure. The Institutional Animal Ethics Committee bearing CPCSEA/IAEC/P-52/2016 was approved for undertaking the study. Acute oral toxicity was conducted on female albino Wistar rats for 8–12 weeks and were maintained at 25 ± 2 °C in a conditioned room with 50–60% of humidity and free access to food and water was given. Rats were kept for fasting overnight (12 h) before dosing and weights were recorded periodically. Rats in two groups were given acridone derivatives alone at a dose of […], rats in two groups were given a combination of Temozolomide : acridone derivatives at dose of 10:1 mg/kg and 15:1.5 mg/kg body weight and one group was kept as control. Dose of Temozolomide was taken as per previously published article ([50]). Compounds alone and combination were suspended in 2.0% of Tween 80 in normal saline and control group was taken for vehicle only. After administering the compound, food was not provided for 3 h. All the rats were monitored periodically for 1 h upto 12 h on the 1st day and thereafter twice in a day for mortality, behavioral changes, signs and symptoms of toxicity for 14 days. Individual weights of rats were taken for all the 14 days and study was conducted twice for each dose.

[3] = Sulforhodamine B assay, Vero control cells; assay type: cell-based; conditions: African green monkey, Vero cells (normal kidney epithelial cells), SRB, read-out: Vero cell Line CC50
Protocol: (§1) In order to test the growth inhibition potential of the TMZ and Acridone derivatives on Glioma, the U-87 (Uppsala 87) Glioma cell lines and T-98 (Temozolomide resistant) Glioma cell lines were treated with Temozolomide (TMZ) and Acridone derivatives AC2, AC7, and AC26. The African Green Monkey Kidney Vero cell lines were used as control for the study. The Vero cell lines were obtained from the National Center for Cell Sciences (NCCS), Pune, while the U-87 and T-98 cell lines were carried in the lab of Dr. GJ Peters, Cancer Center Amsterdam (CCA), VU University Medical Center, Amsterdam, Netherlands. The Mycoplasma testing was done by using the Universal Mycoplasma Detection Kit (ATCC® 30-1012K™) every 6 months. The Vero cell lines have been used as control as they are normal kidney epithelial cells and are non-cancerous in nature. The Vero cell lines have been routinely used for testing cytotoxicity of small molecules by various researchers ([22], [23]). Also, in our previous study, Vero cell lines have been used for testing safety and efficacy of Acridone derivatives for Lung, Cervical, and Breast Cancer studies ([13]).
(§2) Cell viability was found using the Sulforhodamine B (SRB) assay to measure the cellular protein content which provides better sensitivity in comparison to MTT assay ([24]). Moreover, as this method is dependent on the property of the SRB dye, it acts by binding to proteins under slightly acidic conditions and can be exposed to basic conditions for its extraction. The resulting amount of bound dye is then utilized as a proxy for cell mass ([25]). This cell mass can then be extrapolated to measure cell growth.
Glioma cells were cultured in Gibco (RPMI 1640) complemented with 10% fetal calf serum (Gibco). The cultures were then treated with trypsin-EDTA in order to detach/separate the cells from their culture flasks. The quickly proliferating cells were harvested, counted and plated at suitable concentrations in 96-well microplates. These microplates were subsequently incubated for 24 h. After incubation, drug compounds were dissolved in the culture media and placed in 96 well plates in triplicates, which were again incubated at 37°C under 5% CO2 for 72 h. 72 h later, the plates were removed and the cells were treated with cold Trichloroacetic acid (TCA) to fix the cultures and. […] Thereafter, absorbance of the solution was measured at 540 nm utilizing a microplate reader. Absorbance readings (triplicate values) recorded were used to calculate percentage growth inhibition due to the effect of drugs using the following equations.
% Cell growth = Absorbance sample/Absorbance of control or untreated × 100 […]
The IC50 was calculated based on the log graph sheet which was developed in-house at the CCA, VU University Medical Center. […]

[4] = system: U-87 (Uppsala 87) Glioma cell lines; test: Sulforhodamine B assay, U-87 drug sensitive Glioma cells; assay type: cell-based; conditions: for U-87/WT SI: SI = CC50 of Vero cell line /IC50 of Cancer cell line after 72 h; for IC50: 72 h, SRB, Mean ± Standard Deviations in Table 4, read-out: U-87/WT IC50
Protocol: as §1, §2
Glioma cells were cultured in Gibco (RPMI 1640) complemented with 10% fetal calf serum (Gibco). The cultures were then treated with trypsin-EDTA in order to detach/separate the cells from their culture flasks. The quickly proliferating cells were harvested, counted and plated at suitable concentrations in 96-well microplates. These microplates were subsequently incubated for 24 h. After incubation, drug compounds were dissolved in the culture media and placed in 96 well plates in triplicates, which were again incubated at 37°C under 5% CO2 for 72 h. 72 h later, the plates were removed and the cells were treated with cold Trichloroacetic acid (TCA) to fix the cultures and. 0.4% of SRB dissolved in 1% acetic acid was then added to the culture in order to stain the cells. Next, the bound stain was dissolved in 150 μl of 10 mM unbuffered Tris base left on a gyrator shaker. Thereafter, absorbance of the solution was measured at 540 nm utilizing a microplate reader. Absorbance readings (triplicate values) recorded were used to calculate percentage growth inhibition due to the effect of drugs using the following equations.
% Cell growth = Absorbance sample/Absorbance of control or untreated × 100
% Growth inhibition = 100 - % cell growth
The IC50 was calculated based on the log graph sheet which was developed in-house at the CCA, VU University Medical Center.
Selectivity Index (SI) is a ratio that measures the window between cytotoxicity and anticancer activity of the drugs ([26]). […] Here, IC50 is the inhibition concentration for inhibiting 50% of cancer cells and CC50 is cytotoxic concentration causing death of 50% viable cells in the host.

[5] = system: Drug resistant cancer cells (CR), T-98; test: Mathematical tumor growth model simulation and Bliss synergy, drug resistant cancer cells

Compound | pKa [1] | Body weight (g) Day 0 ([2]; 300 mg/kg oral) [g] | Body weight (g) Day 1 ([2]; 300 mg/kg oral) [g] | Body weight (g) Day 2 ([2]; 300 mg/kg oral) [g] | Body weight (g) Day 3 ([2]; 300 mg/kg oral) [g] | Body weight (g) Day 4 ([2]; 300 mg/kg oral) [g] | Body weight (g) Day 5 ([2]; 300 mg/kg oral) [g] | Body weight (g) Day 6 ([2]; 300 mg/kg oral) [g] | Body weight (g) Day 7 ([2]; 300 mg/kg oral) [g] | Body weight (g) Day 8 ([2]; 300 mg/kg oral) [g] | Body weight (g) Day 9 ([2]; 300 mg/kg oral) [g] | Body weight (g) Day 10 ([2]; 300 mg/kg oral) [g] | Body weight (g) Day 11 ([2]; 300 mg/kg oral) [g] | Body weight (g) Day 12 ([2]; 300 mg/kg oral) [g] | Body weight (g) Day 13 ([2]; 300 mg/kg oral) [g] | Body weight (g) Day 14 ([2]; 300 mg/kg oral) [g] | Body weight (g) Day 0 ([2]; 2000 mg/kg oral) [g] | Body weight (g) Day 1 ([2]; 2000 mg/kg oral) [g] | Body weight (g) Day 2 ([2]; 2000 mg/kg oral) [g] | Body weight (g) Day 3 ([2]; 2000 mg/kg oral) [g] | other results
O=C(NN=CC=Cc1ccccc1)c1cccc2c(=O)c3ccccc3[nH]c12 [AC2, 9-oxo-N'-(3-phenylallylidene)-9,10-dihydroacridine-4-carbohydrazide] | 8.03 | 185 ± 6 | 186 ± 12 | 189 ± 10 | 191 ± 15 | 192 ± 12 | 193 ± 22 | 195 ± 12 | 196 ± 10 | 194 ± 12 | 195 ± 10 | 198 ± 15 | 199 ± 16 | 201 ± 10 | 203 ± 6 | 205 ± 18 | 173 ± 8 | 175 ± 11 | 176 ± 8 | 178 ± 12 | Body weight (g) Day 4 ([2]; 2000 mg/kg oral): 180 ± 14 g; Body weight (g) Day 5 ([2]; 2000 mg/kg oral): 183 ± 15 g; Body weight (g) Day 6 ([2]; 2000 mg/kg oral): 185 ± 12 g; Body weight (g) Day 7 ([2]; 2000 mg/kg oral): 188 ± 16 g; Body weight (g) Day 8 ([2]; 2000 mg/kg oral): 190 ± 12 g; Body weight (g) Day 9 ([2]; 2000 mg/kg oral): 192 ± 16 g; Body weight (g) Day 10 ([2]; 2000 mg/kg oral): 195 ± 12 g; Body weight (g) Day 11 ([2]; 2000 mg/kg oral): 197 ± 8 g; Body weight (g) Day 12 ([2]; 2000 mg/kg oral): 199 ± 12 g; Body weight (g) Day 13 ([2]; 2000 mg/kg oral): 202 ± 15 g; Body weight (g) Day 14 ([2]; 2000 mg/kg oral): 206 ± 7 g; clinical sign of toxicity [2]: No clinical sign of toxicity was observed; CC50 at 72 h [3]: 56.2 µM; U-87/WT SI [4]: 36.73; IC50 ([4]; U87WT): 1.53 ± 0.85 µM; % fold change [(final-initial)/initial]*100 ([5]; combination TMZ + AC2): 3.26%; Fold change = final IC50/initial IC50 ([5]; combination TMZ + AC2): 0.96
O=C(NN=Cc1ccccc1Cl)c1cccc2c(=O)c3ccccc3[nH]c12 [AC7, N'-(2-chlorobenzylidene)-9-oxo-9,10-dihydroacridine-4-carbohydrazide] | 9.23 | 175 ± 10 | 176 ± 14 | 178 ± 10 | 181 ± 8 | 183 ± 12 | 185 ± 15 | 188 ± 11 | 192 ± 12 | 194 ± 12 | 196 ± 14 | 195 ± 11 | 197 ± 16 | 199 ± 12 | 202 ± 10 | 205 ± 18 | 180 ± 8 | 181 ± 12 | 183 ± 8 | 185 ± 14 | Body weight (g) Day 4 ([2]; 2000 mg/kg oral): 187 ± 6 g; Body weight (g) Day 5 ([2]; 2000 mg/kg oral): 189 ± 11 g; Body weight (g) Day 6 ([2]; 2000 mg/kg oral): 192 ± 16 g; Body weight (g) Day 7 ([2]; 2000 mg/kg oral): 193 ± 15 g; Body weight (g) Day 8 ([2]; 2000 mg/kg oral): 197 ± 10 g; Body weight (g) Day 9 ([2]; 2000 mg/kg oral): 198 ± 18 g; Body weight (g) Day 10 ([2]; 2000 mg/kg oral): 201 ± 8 g; Body weight (g) Day 11 ([2]; 2000 mg/kg oral): 204 ± 10 g; Body weight (g) Day 12 ([2]; 2000 mg/kg oral): 206 ± 14 g; Body weight (g) Day 13 ([2]; 2000 mg/kg oral): 208 ± 12 g; Body weight (g) Day 14 ([2]; 2000 mg/kg oral): 211 ± 16 g; clinical sign of toxicity [2]: No clinical sign of toxicity was observed; CC50 at 72 h [3]: 48.2 µM; U-87/WT SI [4]: 8.49; IC50 ([4]; U87WT): 5.67 ± 0.58 µM; % fold change [(final-initial)/initial]*100 ([5]; combination TMZ + AC7): 8.5%; Fold change = final IC50/initial IC50 ([5]; combination TMZ + AC7): 0.91
CC(=NNC(=O)c1cccc2c(=O)c3ccccc3[nH]c12)c1ccccc1O [AC26, N'(1-(2-hydroxyphenyl)ethylidene)-9-oxo-9,10-dihydroacridine-4-carbohydrazide] | 6.52 | 178 ± 10 | 182 ± 8 | 183 ± 12 | 184 ± 16 | 187 ± 10 | 189 ± 16 | 191 ± 12 | 194 ± 18 | 196 ± 12 | 199 ± 10 | 201 ± 14 | 202 ± 16 | 205 ± 12 | 207 ± 8 | 209 ± 18 | 181 ± 11 | 182 ± 15 | 185 ± 10 | 188 ± 11 | Body weight (g) Day 4 ([2]; 2000 mg/kg oral): 189 ± 18 g; Body weight (g) Day 5 ([2]; 2000 mg/kg oral): 193 ± 22 g; Body weight (g) Day 6 ([2]; 2000 mg/kg oral): 195 ± 16 g; Body weight (g) Day 7 ([2]; 2000 mg/kg oral): 199 ± 19 g; Body weight (g) Day 8 ([2]; 2000 mg/kg oral): 200 ± 14 g; Body weight (g) Day 9 ([2]; 2000 mg/kg oral): 202 ± 10 g; Body weight (g) Day 10 ([2]; 2000 mg/kg oral): 206 ± 8 g; Body weight (g) Day 11 ([2]; 2000 mg/kg oral): 207 ± 9 g; Body weight (g) Day 12 ([2]; 2000 mg/kg oral): 209 ± 4 g; Body weight (g) Day 13 ([2]; 2000 mg/kg oral): 211 ± 12 g; Body weight (g) Day 14 ([2]; 2000 mg/kg oral): 215 ± 20 g; clinical sign of toxicity [2]: No clinical sign of toxicity was observed; CC50 at 72 h [3]: 66.1 µM; IC50 ([4]; listed as Acridone 26): 1 µM; U-87/WT SI [4]: 73.42; IC50 ([4]; U87WT): 0.9 ± 0.1 µM; Fold change = final IC50/initial IC50 ([5]; combination TMZ + AC26): 0.88
